The source of these data is US9969752B2, “Inhibitors of HIF prolyl hydroxylase” (MERCK SHARP & DOHME CORP., priority 2014, dated 2018).

The target in the first assay is T1, Human HIF-PHD2 (Homo sapiens, UniProt Q9GZT9).
T1 construct: FLAG-tagged full length PHD2 expressed in and purified from baculovirus-infected Sf9 cells; FLAG; made in house; host or cells: baculovirus-infected Sf9 cells
T1 sequence (Q9GZT9 whole entry): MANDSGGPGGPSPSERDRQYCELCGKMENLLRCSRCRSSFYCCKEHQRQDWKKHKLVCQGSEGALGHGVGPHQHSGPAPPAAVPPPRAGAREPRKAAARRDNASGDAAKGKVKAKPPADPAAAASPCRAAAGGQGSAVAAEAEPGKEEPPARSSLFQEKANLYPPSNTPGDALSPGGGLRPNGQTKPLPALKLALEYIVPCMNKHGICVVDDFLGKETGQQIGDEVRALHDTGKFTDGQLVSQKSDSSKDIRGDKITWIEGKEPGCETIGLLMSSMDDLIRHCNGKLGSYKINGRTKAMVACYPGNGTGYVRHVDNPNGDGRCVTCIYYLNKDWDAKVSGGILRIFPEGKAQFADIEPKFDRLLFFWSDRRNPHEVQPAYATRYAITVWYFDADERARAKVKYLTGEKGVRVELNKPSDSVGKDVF
Nature of the assay: Inhibition of the hydroxylation of a HIF peptide by PHD2 (time resolved fluorescence, 384-well). It is filed as biochemical. The following applies: FLAG-tagged full length PHD2; 0.2 μM 2-oxoglutarate, 0.5 μM HIF-1α peptide; 45 minutes at room temperature; read-out: Human HIF-PHD2 IC50.
Regarding `N#Cc1cc2c3c(c1)c(O)c(C(=O)NCC(=O)O)c(=O)n3C(c1ccc(C(F)(F)F)cc1)CS2` (stereo not shown) [Example 102, 2-(9-Cyano-7-hydroxy-5-oxo-3-(4-(trifluoromethyl)phenyl)-3,5-dihydro-2H-[1,4]thiazino[2,3,4-ij]quinoline-6-carboxamido)acetic acid], the IC50 stood at 5.8 nM.
Turning to `O=C(O)CNC(=O)c1c(O)c2cccc3c2n(c1=O)CC(c1ccc(C(F)(F)F)nc1)S3` (stereo not shown) [Example 103, 2-(7-Hydroxy-5-oxo-2-(6-(trifluoromethyl)pyridin-3-yl)-3,5-dihydro-2H-[1,4]thiazino[2,3,4-ij]quinoline-6-carboxamido)acetic acid], the IC50 worked out at 3.4 nM.
For the compound `O=C(O)CNC(=O)c1c(O)c2cccc3c2n(c1=O)CC(c1ccc(C(F)(F)F)nc1)S3(=O)=O` (stereo not shown) [Example 104, 2-(7-Hydroxy-1,1-dioxido-5-oxo-2-(6-(trifluoromethyl)pyridin-3-yl)-3,5-dihydro-2H-[1,4]thiazino[2,3,4-ij]quinoline-6-carboxamido)acetic acid], the IC50 was found to be 6.3 nM.
With `O=C(O)CNC(=O)c1c(O)c2cccc3c2n(c1=O)C(c1cncs1)CS3` (stereo not shown) [Example 105, 2-(7-Hydroxy-5-oxo-3-(thiazol-5-yl)-3,5-dihydro-2H-[1,4]thiazino[2,3,4-ij]quinoline-6-carboxamido)acetic acid], the IC50 amounted to 5.1 nM.
On to `O=C(O)CNC(=O)c1c(O)c2cccc3c2n(c1=O)C(c1ccc(C(F)(F)F)cc1)CN3` (stereo not shown) [Example 106, 2-(7-Hydroxy-5-oxo-3-(4-(trifluoromethyl)phenyl)-1,2,3,5-tetrahydropyrido[1,2,3-de]quinoxaline-6-carboxamido)acetic acid], for which the IC50 is 27 nM.
On to `CN1CC(c2ccc(C(F)(F)F)cc2)n2c(=O)c(C(=O)NCC(=O)O)c(O)c3cccc1c32` (stereo not shown) [Example 107, 2-(7-Hydroxy-1-methyl-5-oxo-3-(4-(trifluoromethyl)phenyl)-1,2,3,5-tetrahydropyrido[1,2,3-de]quinoxaline-6-carboxamido)acetic acid], for which the IC50 is 68 nM.
In the case of `O=C(O)CNC(=O)c1c(O)c2cccc3c2n(c1=O)CC(c1ccc(C(F)(F)F)cc1)N3` (stereo not shown) [Example 108, 2-(7-Hydroxy-5-oxo-2-(4-(trifluoromethyl)phenyl)-1,2,3,5-tetrahydropyrido[1,2,3-de]quinoxaline-6-carboxamido)acetic acid], the IC50 came to 6.5 nM.
On to `N#Cc1ccc2c(O)c(C(=O)NCC(=O)O)c(=O)n3c2c1NC(c1cncs1)C3` (stereo not shown) [Example 109, 2-(10-Cyano-7-hydroxy-5-oxo-2-(thiazol-5-yl)-1,2,3,5-tetrahydropyrido[1,2,3-de]quinoxaline-6-carboxamido)acetic acid], for which the IC50 came out at 4.2 nM.
For `O=C(O)CNC(=O)c1c(O)c2cccc3c2n(c1=O)CC(c1cncs1)N3` (stereo not shown) [Example 110, 2-(7-Hydroxy-5-oxo-2-(thiazol-5-yl)-1,2,3,5-tetrahydropyrido[1,2,3-de]quinoxaline-6-carboxamido)acetic acid], the IC50 came out at 12 nM.
As for `O=C(O)CNC(=O)c1c(O)c2cccc3c2n(c1=O)C(c1cncs1)CN3` (stereo not shown) [Example 111, 2-(7-Hydroxy-5-oxo-3-(thiazol-5-yl)-1,2,3,5-tetrahydropyrido[1,2,3-de]quinoxaline-6-carboxamido)acetic acid], the IC50 was found to be 15 nM.
As for `CN1c2cccc3c(O)c(C(=O)NCC(=O)O)c(=O)n(c23)CC1c1cncs1` (stereo not shown) [Example 112, 2-(7-Hydroxy-1-methyl-5-oxo-2-(thiazol-5-yl)-1,2,3,5-tetrahydropyrido[1,2,3-de]quinoxaline-6-carboxamido)acetic acid], the IC50 stood at 29 nM.
Same read-out and setting: the result for `CN1CC(c2cncs2)n2c(=O)c(C(=O)NCC(=O)O)c(O)c3cccc1c32` (stereo not shown) [Example 113, 2-(7-Hydroxy-1-methyl-5-oxo-3-(thiazol-5-yl)-1,2,3,5-tetrahydropyrido[1,2,3-de]quinoxaline-6-carboxamido)acetic acid] reads 125 nM; that for `N#Cc1ccc2c(O)c(C(=O)NCC(=O)O)c(=O)n3c2c1NC(c1ccc(C(F)(F)F)cc1)C3` (stereo not shown) [Example 114, 2-(10-Cyano-7-hydroxy-5-oxo-2-(4-(trifluoromethyl)phenyl)-1,2,3,5-tetrahydropyrido[1,2,3-de]quinoxaline-6-carboxamido)acetic acid], 1 nM; that for `O=C(O)CNC(=O)c1c(O)c2ccc(F)c3c2n(c1=O)C(c1ccc(C(F)(F)F)cc1)CN3` (stereo not shown) [Example 115, 2-(10-Fluoro-7-hydroxy-5-oxo-3-(4-(trifluoromethyl)phenyl)-1,2,3,5-tetrahydropyrido[1,2,3-de]quinoxaline-6-carboxamido)acetic acid], 13 nM.
With `O=C(O)CNC(=O)c1c(O)c2ccc(F)c3c2n(c1=O)CC(c1ccc(C(F)(F)F)cc1)N3` (stereo not shown) [Example 116, 2-(10-Fluoro-7-hydroxy-5-oxo-2-(4-(trifluoromethyl)phenyl)-1,2,3,5-tetrahydropyrido[1,2,3-de]quinoxaline-6-carboxamido)acetic acid], the IC50 turned out to be 8.8 nM.
Consider `CN1CC(c2ccc(C(F)(F)F)cc2)n2c(=O)c(C(=O)NCC(=O)O)c(O)c3ccc(F)c1c32` (stereo not shown) [Example 117, 2-(10-Fluoro-7-hydroxy-1-methyl-5-oxo-3-(4-(trifluoromethyl)phenyl)-1,2,3,5-tetrahydropyrido[1,2,3-de]quinoxaline-6-carboxamido)acetic acid], for which the IC50 was determined as 55 nM.
With `O=C(O)CNC(=O)c1c(O)c2cc(F)cc3c2n(c1=O)C(c1ccc(C(F)(F)F)cc1)CN3` (stereo not shown) [Example 118, 2-(9-Fluoro-7-hydroxy-5-oxo-3-(4-(trifluoromethyl)phenyl)-1,2,3,5-tetrahydropyrido[1,2,3-de]quinoxaline-6-carboxamido)acetic acid], the IC50 stood at 5.7 nM.
For the compound `O=C(O)CNC(=O)c1c(O)c2c(F)ccc3c2n(c1=O)CC(c1ccc(C(F)(F)F)cc1)N3` (stereo not shown) [Example 119, 2-(8-Fluoro-7-hydroxy-5-oxo-2-(4-(trifluoromethyl)phenyl)-1,2,3,5-tetrahydropyrido[1,2,3-de]quinoxaline-6-carboxamido)acetic acid], the IC50 turned out to be 10 nM.
Still for that read-out and setting: as for `O=C(O)CNC(=O)c1c(O)c2cc(F)cc3c2n(c1=O)CC(c1ccc(C(F)(F)F)cc1)N3` (stereo not shown) [Example 120, 2-(9-Fluoro-7-hydroxy-5-oxo-2-(4-(trifluoromethyl)phenyl)-1,2,3,5-tetrahydropyrido[1,2,3-de]quinoxaline-6-carboxamido)acetic acid], the figure is 4.6 nM.
`O=C(O)CNC(=O)c1c(O)c2c(F)ccc3c2n(c1=O)C(c1ccc(C(F)(F)F)cc1)CN3` (stereo not shown) [Example 121, 2-(8-Fluoro-7-hydroxy-5-oxo-3-(4-(trifluoromethyl)phenyl)-1,2,3,5-tetrahydropyrido[1,2,3-de]quinoxaline-6-carboxamido)acetic acid]: the IC50 came out at 9.4 nM.
Turning to `CN1CC(c2ccc(C(F)(F)F)cc2)n2c(=O)c(C(=O)NCC(=O)O)c(O)c3cc(F)cc1c32` (stereo not shown) [Example 122, 2-(9-Fluoro-7-hydroxy-1-methyl-5-oxo-3-(4-(trifluoromethyl)phenyl)-1,2,3,5-tetrahydropyrido[1,2,3-de]quinoxaline-6-carboxamido)acetic acid], the IC50 was found to be 30 nM.
As to `CN1c2cc(F)cc3c(O)c(C(=O)NCC(=O)O)c(=O)n(c23)CC1c1ccc(C(F)(F)F)cc1` (stereo not shown) [Example 123, 2-(9-Fluoro-7-hydroxy-1-methyl-5-oxo-2-(4-(trifluoromethyl)phenyl)-1,2,3,5-tetrahydropyrido[1,2,3-de]quinoxaline-6-carboxamido)acetic acid], the IC50 was determined as 15 nM.
In the case of `O=C(O)CNC(=O)c1c(O)c2cc(OC(F)(F)F)cc3c2n(c1=O)CC(c1ccc(C(F)(F)F)cc1)O3` (stereo not shown) [Example 124, 2-(7-Hydroxy-5-oxo-9-(trifluoromethoxy)-2-(4-(trifluoromethyl)phenyl)-3,5-dihydro-2H-[1,4]oxazino[2,3,4-ij]quinoline-6-carboxamido)acetic acid], the IC50 was found to be 9.6 nM.
Consider `O=C(O)CNC(=O)c1c(O)c2cccc3c2n(c1=O)C(c1ccc(C(F)(F)F)nc1)CN3` (stereo not shown) [Example 127, 2-(7-Hydroxy-5-oxo-3-(6-(trifluoromethyl)pyridin-3-yl)-1,2,3,5-tetrahydropyrido[1,2,3-de]quinoxaline-6-carboxamido)acetic acid], for which the IC50 was found to be 3.6 nM.
With `CN1CC(c2ccc(C(F)(F)F)nc2)n2c(=O)c(C(=O)NCC(=O)O)c(O)c3cccc1c32` (stereo not shown) [Example 128, 2-(7-Hydroxy-1-methyl-5-oxo-3-(6-(trifluoromethyl)pyridin-3-yl)-1,2,3,5-tetrahydropyrido[1,2,3-de]quinoxaline-6-carboxamido)acetic acid], the IC50 is 6.9 nM.
The same measure, in the same setting: as for `CS(=O)(=O)Nc1ccc(-c2ccc3c(O)c(C(=O)NCC(=O)O)c(=O)n4c3c2OCC4c2ccc(C(F)(F)F)cc2)cc1` (stereo not shown) [Example 134, N-[(7-Hydroxy-10-{4-[(methylsulfonyl)amino]phenyl}-5-oxo-3-[4-(trifluoromethyl)phenyl]-2,3-dihydro-5H-[1,4]oxazino[2,3,4-ij]quinolin-6-yl)carbonyl]glycine], the figure is 38 nM.

Staying with this assay, now noted: FLAG-tagged full length PHD2; 0.2 μM 2-oxoglutarate, 0.5 μM HIF-1α peptide; 45 minutes at room temperature; read-out: MS m/z (M + 1)+ and human HIF-PHD2 IC50.
Regarding `COc1cncc(-c2ccc3c(O)c(C(=O)NCC(=O)O)c(=O)n4c3c2OCC4c2ccc(C(F)(F)F)cc2)c1` (stereo not shown) [Example 135, N-({7-hydroxy-10-(5-methoxypyridin-3-yl)-5-oxo-3-[4-(trifluoromethyl)phenyl]-2,3-dihydro-5H-[1,4]oxazino[2,3,4-ij]quinolin-6-yl}carbonyl)glycine], the IC50 was 15 nM.
Regarding `O=C(O)CNC(=O)c1c(O)c2ccc(-c3ccccn3)c3c2n(c1=O)C(c1ccc(C(F)(F)F)cc1)CO3` (stereo not shown) [Example 136, N-({7-hydroxy-5-oxo-10-pyridin-2-yl-3-[4-(trifluoromethyl)phenyl]-2,3-dihydro-5H-[1,4]oxazino[2,3,4-ij]quinolin-6-yl}carbonyl)glycine], the IC50 was found to be 19 nM.
